Results as given in PubChem BioAssay AID1963978 (Molecular Pharmacology Branch, DTP, NCI, 2024).

System: 616215-338-R-J1-PDC spheroids with HUVEC/MSC, viability
Assay: Anticancer human tumor 616215-338-R-J1-PDC patient-derived colon adenocarcinoma cell line growth inhibition [PI3K]
Settings: for IC50: curve of first compound; for viability, T/C: stronger effect = lower value
Method in brief: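 Targeted small molecules plus PI3K inhibitors, half-log dose series from Cmax (default top 10 microM), were applied to heterotypic spheroids of cancer cells with HUVEC and MSCs. Viability indicated growth inhibition.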

[1] = second compound 0.0316 µM, first compound 0.0316 µM
[2] = second compound 0.0316 µM, first compound 0.1 µM
[3] = second compound 0.0316 µM, first compound 0.316 µM
[4] = second compound 0.0316 µM, first compound 1 µM
[5] = second compound 0.0316 µM, first compound 3.16 µM
[6] = second compound 0.0316 µM, first compound 10 µM
[7] = second compound 0.1 µM, first compound 0.0316 µM
[8] = second compound 0.1 µM, first compound 0.1 µM
[9] = second compound 0.1 µM, first compound 0.316 µM
[10] = second compound 0.1 µM, first compound 1 µM
[11] = second compound 0.1 µM, first compound 3.16 µM
[12] = second compound 0.1 µM, first compound 10 µM
[13] = second compound 0.316 µM, first compound 0.0316 µM
[14] = second compound 0.316 µM, first compound 0.1 µM
[15] = second compound 0.316 µM, first compound 0.316 µM
[16] = second compound 0.316 µM, first compound 1 µM
[17] = second compound 0.316 µM, first compound 3.16 µM
[18] = second compound 0.316 µM, first compound 10 µM
[19] = second compound 1 µM, first compound 0.0316 µM
[20] = second compound 1 µM, first compound 0.1 µM
[21] = second compound 1 µM, first compound 0.316 µM
[22] = second compound 1 µM, first compound 1 µM
[23] = second compound 1 µM, first compound 3.16 µM
[24] = second compound 1 µM, first compound 10 µM
[25] = second compound 3.16 µM, first compound 0.0316 µM
[26] = second compound 3.16 µM, first compound 0.1 µM
[27] = second compound 3.16 µM, first compound 0.316 µM
[28] = second compound 3.16 µM, first compound 1 µM
[29] = second compound 3.16 µM, first compound 3.16 µM
[30] = second compound 3.16 µM, first compound 10 µM
[31] = second compound 10 µM, first compound 0.0316 µM
[32] = second compound 10 µM, first compound 0.1 µM
[33] = second compound 10 µM, first compound 0.316 µM
[34] = second compound 10 µM, first compound 1 µM
[35] = second compound 10 µM, first compound 3.16 µM
[36] = second compound 10 µM, first compound 10 µM
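Further: spheroids exposed to agents for seven days before the viability read.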

`CCCS(=O)(=O)Nc1ccc(F)c(C(=O)c2c[nH]c3ncc(-c4ccc(Cl)cc4)cc23)c1F` + CC(Nc1ncnc2nc[nH]c12)c1cc2cccc(Cl)c2c(=O)n1-c1ccccc1 gave an IC50 (second compound 0.0316 µM) of 4.58 µM, an IC50 (second compound 0.1 µM) of 4.06 µM and an IC50 (second compound 0.316 µM) of 4.39 µM. For the same compound, the IC50 (second compound 1 µM) was 4.67 µM, the IC50 (second compound 3.16 µM) was 4.29 µM and the IC50 (second compound 10 µM) was 4.69 µM. For the same compound, the viability, T/C [1] was 102%, the viability, T/C [2] was 93.2% and the viability, T/C [3] was 106%. The viability, T/C [4] was 93.6%, the viability, T/C [5] was 73.2% and the viability, T/C [6] was 1.56%. The viability, T/C [7] was 110%, the viability, T/C [8] was 102% and the viability, T/C [9] was 106%. The viability, T/C [10] was 96.4%, the viability, T/C [11] was 63.4% and the viability, T/C [12] was 1.25%. It also gave a viability, T/C [13] of 105%, a viability, T/C [14] of 113% and a viability, T/C [15] of 97.7%. The viability, T/C [16] was 101%, the viability, T/C [17] was 68.9% and the viability, T/C [18] was 1.67%. For the same compound, the viability, T/C [19] was 107%, the viability, T/C [20] was 105% and the viability, T/C [21] was 93.8%. It also gave a viability, T/C [22] of 101%, a viability, T/C [23] of 74.3% and a viability, T/C [24] of 2.71%. The viability, T/C [25] was 100%, the viability, T/C [26] was 115% and the viability, T/C [27] was 102%. For the same compound, the viability, T/C [28] was 107%, the viability, T/C [29] was 67.4% and the viability, T/C [30] was 1.53%. For the same compound, the viability, T/C [31] was 115%, the viability, T/C [32] was 105% and the viability, T/C [33] was 113%. The viability, T/C [34] was 104%, the viability, T/C [35] was 74.7% and the viability, T/C [36] was 3%.

Work on `C=CC(=O)N1CCN(c2nc(=O)n(-c3c(C)ccnc3C(C)C)c3nc(-c4c(O)cccc4F)c(F)cc23)C(C)C1` (stereo not drawn) + COc1c(OCCCN2CCOCC2)ccc2c3n(c(=NC(=O)c4cnc(N)nc4)nc12)CCN3 yielded an IC50 (second compound 0.00316 µM) of over 10 µM, an IC50 (second compound 0.01 µM) of over 10 µM and an IC50 (second compound 0.0316 µM) of over 10 µM. For the same compound, the IC50 (second compound 0.1 µM) was over 10 µM, the IC50 (second compound 0.316 µM) was under 0.0316 µM and the IC50 (second compound 1 µM) was under 0.0316 µM. It also gave a viability, T/C (second compound 0.00316 µM, first compound 0.0316 µM) of 90.8%, a viability, T/C (second compound 0.00316 µM, first compound 0.1 µM) of 87.9% and a viability, T/C (second compound 0.00316 µM, first compound 0.316 µM) of 92.2%. For the same compound, the viability, T/C (second compound 0.00316 µM, first compound 1 µM) was 96.6%, the viability, T/C (second compound 0.00316 µM, first compound 3.16 µM) was 95.2% and the viability, T/C (second compound 0.00316 µM, first compound 10 µM) was 80.1%. The viability, T/C (second compound 0.01 µM, first compound 0.0316 µM) was 110%, the viability, T/C (second compound 0.01 µM, first compound 0.1 µM) was 92.2% and the viability, T/C (second compound 0.01 µM, first compound 0.316 µM) was 97.8%. For the same compound, the viability, T/C (second compound 0.01 µM, first compound 1 µM) was 101%, the viability, T/C (second compound 0.01 µM, first compound 3.16 µM) was 111% and the viability, T/C (second compound 0.01 µM, first compound 10 µM) was 78%. It also gave a viability, T/C [1] of 106%, a viability, T/C [2] of 85.9% and a viability, T/C [3] of 99.5%. It also gave a viability, T/C [4] of 110%, a viability, T/C [5] of 87.8% and a viability, T/C [6] of 76.2%. The viability, T/C [7] was 91.7%, the viability, T/C [8] was 96.8% and the viability, T/C [9] was 93.4%. The viability, T/C [10] was 98.9%, the viability, T/C [11] was 90.2% and the viability, T/C [12] was 71.7%. It also gave a viability, T/C [13] of 52.7%, a viability, T/C [14] of 36.7% and a viability, T/C [15] of 46.1%. The viability, T/C [16] was 47.1%, the viability, T/C [17] was 47.1% and the viability, T/C [18] was 36.6%. It also gave a viability, T/C [19] of 23.4%, a viability, T/C [20] of 23.2% and a viability, T/C [21] of 29.8%. For the same compound, the viability, T/C [22] was 24.4%, the viability, T/C [23] was 25.4% and the viability, T/C [24] was 21%.

In the case of `C=CC(=O)N1CCN(c2nc(=O)n(-c3c(C)ccnc3C(C)C)c3nc(-c4c(O)cccc4F)c(F)cc23)C(C)C1` (stereo not drawn) + CC(Nc1ncnc2nc[nH]c12)c1cc2cccc(Cl)c2c(=O)n1-c1ccccc1, the IC50 (second compound 0.0316 µM) is reported as over 10 µM, the IC50 (second compound 0.1 µM) is reported as over 10 µM and the IC50 (second compound 0.316 µM) is reported as over 10 µM. For the same compound, the IC50 (second compound 1 µM) was over 10 µM, the IC50 (second compound 3.16 µM) was over 10 µM and the IC50 (second compound 10 µM) was over 10 µM. For the same compound, the viability, T/C [1] was 89%, the viability, T/C [2] was 92.5% and the viability, T/C [3] was 109%. For the same compound, the viability, T/C [4] was 104%, the viability, T/C [5] was 93.3% and the viability, T/C [6] was 95.8%. The viability, T/C [7] was 100%, the viability, T/C [8] was 99.3% and the viability, T/C [9] was 98%. It also gave a viability, T/C [10] of 93.4%, a viability, T/C [11] of 96.8% and a viability, T/C [12] of 89.1%. The viability, T/C [13] was 99.7%, the viability, T/C [14] was 107% and the viability, T/C [15] was 92.8%. It also gave a viability, T/C [16] of 96.5%, a viability, T/C [17] of 91.4% and a viability, T/C [18] of 74.7%. For the same compound, the viability, T/C [19] was 101%, the viability, T/C [20] was 99.5% and the viability, T/C [21] was 106%. For the same compound, the viability, T/C [22] was 96.9%, the viability, T/C [23] was 94% and the viability, T/C [24] was 88.5%. The viability, T/C [25] was 101%, the viability, T/C [26] was 104% and the viability, T/C [27] was 98%. It also gave a viability, T/C [28] of 105%, a viability, T/C [29] of 85.4% and a viability, T/C [30] of 78.8%. The viability, T/C [31] was 106%, the viability, T/C [32] was 107% and the viability, T/C [33] was 108%. The viability, T/C [34] was 95.5%, the viability, T/C [35] was 99% and the viability, T/C [36] was 82.6%.

In the case of `Cn1cnc2c(F)c(Nc3ccc(Br)cc3Cl)c(C(=O)NOCCO)cc21` + Cc1nc(NC(=O)N2CCCC2C(N)=O)sc1-c1ccnc(C(C)(C)C(F)(F)F)c1, the IC50 (second compound 0.0316 µM) is reported as 1.01 µM, the IC50 (second compound 0.1 µM) is reported as 1.59 µM and the IC50 (second compound 0.316 µM) is reported as 1.11 µM. It also gave an IC50 (second compound 1 µM) of 0.725 µM, an IC50 (second compound 3.16 µM) of 0.423 µM and an IC50 (second compound 10 µM) of 0.379 µM. It also gave a viability, T/C (second compound 0.0316 µM, first compound 0.00949 µM) of 107%, a viability, T/C (second compound 0.0316 µM, first compound 0.03 µM) of 94.8% and a viability, T/C (second compound 0.0316 µM, first compound 0.0949 µM) of 99.2%. For the same compound, the viability, T/C (second compound 0.0316 µM, first compound 0.3 µM) was 79.9%, the viability, T/C (second compound 0.0316 µM, first compound 0.949 µM) was 50.1% and the viability, T/C (second compound 0.0316 µM, first compound 3 µM) was 44.3%. For the same compound, the viability, T/C (second compound 0.1 µM, first compound 0.00949 µM) was 111%, the viability, T/C (second compound 0.1 µM, first compound 0.03 µM) was 91.3% and the viability, T/C (second compound 0.1 µM, first compound 0.0949 µM) was 98.2%. The viability, T/C (second compound 0.1 µM, first compound 0.3 µM) was 91.8%, the viability, T/C (second compound 0.1 µM, first compound 0.949 µM) was 55.3% and the viability, T/C (second compound 0.1 µM, first compound 3 µM) was 43.4%. For the same compound, the viability, T/C (second compound 0.316 µM, first compound 0.00949 µM) was 109%, the viability, T/C (second compound 0.316 µM, first compound 0.03 µM) was 101% and the viability, T/C (second compound 0.316 µM, first compound 0.0949 µM) was 77.4%. It also gave a viability, T/C (second compound 0.316 µM, first compound 0.3 µM) of 73.1%, a viability, T/C (second compound 0.316 µM, first compound 0.949 µM) of 50.1% and a viability, T/C (second compound 0.316 µM, first compound 3 µM) of 36.9%. It also gave a viability, T/C (second compound 1 µM, first compound 0.00949 µM) of 99.7%, a viability, T/C (second compound 1 µM, first compound 0.03 µM) of 95.6% and a viability, T/C (second compound 1 µM, first compound 0.0949 µM) of 83.4%. It also gave a viability, T/C (second compound 1 µM, first compound 0.3 µM) of 75.8%, a viability, T/C (second compound 1 µM, first compound 0.949 µM) of 39.2% and a viability, T/C (second compound 1 µM, first compound 3 µM) of 36.5%. For the same compound, the viability, T/C (second compound 3.16 µM, first compound 0.00949 µM) was 106%, the viability, T/C (second compound 3.16 µM, first compound 0.03 µM) was 94.5% and the viability, T/C (second compound 3.16 µM, first compound 0.0949 µM) was 79.3%. The viability, T/C (second compound 3.16 µM, first compound 0.3 µM) was 55.4%, the viability, T/C (second compound 3.16 µM, first compound 0.949 µM) was 36.4% and the viability, T/C (second compound 3.16 µM, first compound 3 µM) was 26.2%. It also gave a viability, T/C (second compound 10 µM, first compound 0.00949 µM) of 101%, a viability, T/C (second compound 10 µM, first compound 0.03 µM) of 86.3% and a viability, T/C (second compound 10 µM, first compound 0.0949 µM) of 94%. The viability, T/C (second compound 10 µM, first compound 0.3 µM) was 54.1%, the viability, T/C (second compound 10 µM, first compound 0.949 µM) was 21.9% and the viability, T/C (second compound 10 µM, first compound 3 µM) was 1.33%.
